Results from patent US9226939B2, “Histone inhibition” (THE AUSTRALIAN NATIONAL UNIVERSITY, priority 2010, dated 2016).

Assays:
[1] = test system: calf thymus histones; test: Inhibition of histone killing of HMEC (flow cytometry, Calcein-AM/PI); type: cell-based; settings: for inhibitory activity on histone toxicity (in words) / % histone killing ± SEM: HMEC; for inhibitory activity on histone toxicity (in words): Table 1 discussion; for % histone killing ± SEM: compounds at 50 μg/ml, calf thymus histones 400 μg/ml; for inhibition of cytotoxic effects of histones for HMEC: histones 400 μg/ml
Procedure: (§1) Different concentrations of calf thymus histones were initially assessed for their toxicity for human umbilical vein endothelial cells (HUVEC) and human microvascular endothelial cells (HMEC). Suspensions of HUVEC/HMEC in Medium199/20% fetal calf serum (FCS) were dispensed into each well of a 96 well plate (1×10^5 cells/well in 50 μl of medium). Calf thymus histones (50 μl/well in M199/20% FCS) were then added to give a final concentration of 100-800 μg/ml followed by 25 μl/well of Calcein-AM in PBS (final concentration 0.04 μM) and 25 propidium iodide (PI) in PBS (final concentration 2.5 μg/ml). Each 96 well plate was incubated at 37° C. for 60 min in a 5% CO2 incubator, placed on ice and the contents of each well analysed by flow cytometry for viable and dead cells. Viable cells were detected as Calcein-AM-bright and PI-dim and dead cells as Calcein-AM-dim and PI-bright. FIG. 1 depicts a typical viability assay comparing HUVEC cultured alone (9.15% dead, 78.6% viable) with HUVEC cultured for 60 min with 200 μg/ml of calf thymus histones (50.4% dead, 35.6% viable). The toxicity of calf thymus histones for HUVEC and HMEC is shown in detail in FIG. 2, with histone toxicity for HUVEC (FIG. 2A) and HMEC (FIG. 2B) being highly concentration dependent, although HMEC were more resistant to histone toxicity than HUVEC. Thus, at 100 μg/ml histones killed 15-20% of HUVEC but had no effect on HMEC viability, whereas at 800 μg/ml histones killed >85% of HUVEC and ˜55% of HMEC (FIG. 1). In subsequent inhibition experiments calf thymus histones were used at 200 μg/ml for HUVEC and 400 μg/ml for HMEC, these concentrations resulting in ˜50% killing of both populations of endothelial cells.
In inhibition experiments the inhibitor (final concentration ranging from 1.6-100 μg/ml) was mixed with calf thymus histones (final concentration 200 or 400 μg/ml) prior to the addition of HUVEC/HMEC, Calcein-AM and PI to each well.
Using HMEC as the endothelial cell target similar inhibitory effects of maltotriose sulfate (FIG. 6) and the other sulfated oligosaccharides (Table 1) on histone toxicity was observed. In fact, a more detailed analysis of the inhibitory activity of a range of polyanions on histone toxicity, using HMEC as the target endothelial cell, is shown in Table 1.

[2] = test system: lipopolysaccharide (LPS)-induced mouse model of sepsis; test: LPS-induced mouse model of sepsis; type: in vivo
Procedure: A study was conducted to assess in vivo efficacy of test articles 1 (maltotriose sulfate; TA1), 2 (cellobiose sulfate; TA2), and 3 (heparin; TA3) in a lipopolysaccharide (LPS)-induced mouse model of sepsis. Endotoxemia was induced by intraperitoneal (i.p.) injection with LPS on day 1. Test articles were co-administered i.p. on day 1, and then dosed daily i.p. for an additional 2 days.

[3] = test system: radiolabelled histones; test: Blockade of radiolabelled histone accumulation in rabbit lungs (gamma scintigraphy); type: in vivo; settings: 15 mg/kg intravenously 15 minutes before radiolabel
[4] = test system: calf thymus histones; test: Inhibition of histone cytotoxicity for HUVEC (flow cytometry, Calcein-AM/PI); type: cell-based; settings: inhibitor 1.6-100 μg/ml; histones 200 μg/ml
Procedure: as §1, with “Thus, at 100 μg/ml histones killed 15-20% of HUVEC but had no effect on HMEC viability, whereas at 800 μg/ml histones killed >85% of HUVEC and ˜55% of HMEC (FIG. 1). In subsequent inhibition experiments calf thymus histones were used at 200 μg/ml for HUVEC and 400 μg/ml for HMEC, these concentrations resulting in ˜50% killing of both populations of endothelial cells.” left out

[5] = 15 mg/kg i.p. daily x3, LPS 50 mg/kg
[6] = 15 mg/kg i.p. daily x3, with LPS
[7] = 100 mg/kg i.p. daily x3, with LPS

Compound: O=S(=O)(O)OC[C@H]1O[C@@](COS(=O)(=O)O)(O[C@H]2O[C@H](COS(=O)(=O)O)[C@@H](OS(=O)(=O)O)[C@H](OS(=O)(=O)O)[C@H]2OS(=O)(=O)O)[C@@H](OS(=O)(=O)O)[C@@H]1OS(=O)(=O)O [Sucrose octasulfate, reference compound]
- inhibitory activity on histone toxicity (in words) [1]: weaker inhibitors
- % histone killing ± SEM [1]: 43.5 ± 4.0%

Compound: Carboxylated β-cyclodextrin
- inhibitory activity on histone toxicity (in words) [1]: not
- % histone killing ± SEM [1]: 105.8 ± 19.9%

Compound: Heparin [reference compound]
- survival (Kaplan-Meier) ([2]; 1.1 mg/kg i.p. daily x3, LPS 50 mg/kg): no apparent change in the survival plot compared to the control
- tolerability ([2]; 1.1 mg/kg i.p. daily x3, with LPS): well tolerated
- inhibitory activity on histone toxicity (in words) [1]: active

Compound: Isomaltotriose sulfate [Isomaltotriose SO4]
- % histone killing ± SEM [1]: 49.5 ± 5.4%

Compound: Propanyl bis-gluconamide SO4
- inhibitory activity on histone toxicity (in words) [1]: some inhibitory activity
- % histone killing ± SEM [1]: 27.8 ± 1.5%

Compound: cellobiose sulfate [Cellobiose SO4]
- accumulation of radiolabelled histones in the lung [3]: blocked
- survival (Kaplan-Meier) [2, 5]: extended survival
- tolerability [2, 6]: well tolerated
- survival (Kaplan-Meier) ([2]; 100 mg/kg i.p. daily x3, LPS 50 mg/kg): extended survival
- tolerability [2, 7]: well tolerated
- inhibitory activity on histone toxicity (in words) [1]: potent inhibitor

Compound: low molecular weight heparin [reference compound]
- inhibitory activity on histone toxicity (in words) [1]: active

Compound: maltose sulfate [Maltose SO4]
- inhibitory activity on histone cytotoxicity for HUVEC (in words) [4]: weak inhibitor
- inhibitory activity on histone toxicity (in words) [1]: weaker inhibitors
- % histone killing ± SEM [1]: 77.1 ± 4.7%

Compound: maltotriose sulfate [Maltotriose SO4]
- survival (Kaplan-Meier) [2, 5]: extended survival
- tolerability [2, 6]: better tolerated
- tolerability [2, 7]: appeared to produce some toxicity (cluster of deaths) after the third dose
- inhibitory activity on histone toxicity (in words) [1]: more active than sulfated isomaltotriose
- inhibition of cytotoxic effects of histones for HMEC ([1]; maltotriose sulfate 25 μg/ml): totally
- inhibition of cytotoxic effects of histones for HMEC ([1]; maltotriose sulfate 100 μg/ml): partially

Compound: panose sulfate [Panose SO4]
- inhibitory activity on histone toxicity (in words) [1]: more active than sulfated isomaltotriose

Compound: raffinose sulfate [Raffinose SO4]
- inhibitory activity on histone toxicity (in words) [1]: more active than sulfated isomaltotriose

Compound: sodium maltohexaose sulfate
- accumulation of radiolabelled histones in the lung [3]: blocked

Compound: sodium maltotetraose sulfate
- accumulation of radiolabelled histones in the lung [3]: blocked

Compound: β-cyclodextrin sulfate [β-cyclodextrin SO4]
- inhibitory activity on histone cytotoxicity for HUVEC (in words) [4]: almost as active as the linear maltotriose sulfate and maltopentaose sulfate
- inhibitory activity on histone toxicity (in words) [1]: active
